Experiment: Drug elution in PBS over 0-7 days (HPLC of supernatant)
Format: physicochemical
Details: 1.2 ml PBS, 37 degrees centigrade, 250 rpm
Method: The microspheres of Example 7 and the elongated solid composition of Example 8 were tested for drug release. Samples of the Everolimus containing microspheres, averaging 4.0 mg, were placed in Eppendorf tubes with 1.2 ml of phosphate buffered saline (PBS) and suspended with agitation. Samples of the elongated solid composition containing Everolimus of 12 mm length, averaging 0.51 mg were placed in Eppendorf tubes with 1.2 ml of phosphate buffered saline (PBS) and suspended with agitation. For comparison, samples of the drug used to produce the microspheres, averaging 4.1 mg, were also placed in Eppendorf tubes with 1.2 ml of PBS and suspended with agitation. The tubes were incubated at 37 degrees centigrade with mixing at 250 rpm. At time intervals of 0, 1, 2, 4 and 7 days a tube containing sample was centrifuged and the supernatant removed for drug analysis. For each time point, 10 microliters of supernatant was placed into 75:25 acetonitrile and water solvent to solubilize the drug and the resultant drug content was analyzed by HPLC. The HPLC method used a C18 reverse phase column and UV detection and was calibrated to a standard curve of drug. […] In contrast, the Everolimus containing microspheres released drug at a slower rate, with 0.06% of the drug released at 7 days. Similar to the microspheres, the elongated solid composition containing Everolimus released drug at a slow rate, with 0.04% of the drug released at 7 days.
The microspheres of Example 11 and the elongated solid composition of Example 12 were tested for drug release. […] For each time point, 10 microliters of supernatant was placed into 75:25 acetonitrile and water solvent to solubilize the drug and the resultant drug content was analyzed by HPLC. […]
The elongated solid composition of Example 15 was tested for drug release. […] For each time point, 10 microliters of supernatant was placed into 50:50 acetonitrile and methanol solvent to solubilize the drug and the resultant drug content was analyzed by HPLC. […]

SMILES | drug released initially at 0 days (initial burst release) (0 days) [%] | drug released, average at subsequent time points (1, 2, 4 and 7 days) [%] | drug released at 7 days (7 days) [%]
CC1(C)O[C@@H]2C[C@H]3[C@@H]4C[C@H](F)C5=CC(=O)C=C[C@]5(C)[C@@]4(F)[C@@H](O)C[C@]3(C)[C@]2(C(=O)CO)O1 [fluocinolone, fluocinolone acetonide] | 5.3 | 0.9 | –
CO[C@H]1C[C@@H]2CC[C@@H](C)[C@@](O)(O2)C(=O)C(=O)N2CCCC[C@H]2C(=O)O[C@H]([C@H](C)C[C@@H]2CC[C@@H](OCCO)[C@H](OC)C2)CC(=O)[C@H](C)/C=C(\C)[C@@H](O)[C@@H](OC)C(=O)[C@H](C)C[C@H](C)/C=C/C=C/C=C/1C [Everolimus] | – | – | 0.45

Reference: patent US20180250224A1, “Ophthalmic Drug Compositions” (Oxular Limited, priority 2014, published 2018)
